Experimental findings from EP0075029A1, “AGENT FOR TREATING CHRONIC OBLITERATIVE LUNG DISEASE” (priority 1981, dated 1982) are described below.

Structures can show the parent of a compound that is named as a salt.

Experiment [1] deals with blood-perfused trachea in situ. Nature of the experiment: Blood-perfused trachea in situ (Himori and Taira): tracheal blood flow and inside pressure of the trachea. The settings on record: intraarterial injection, dogs. Format: in vivo.
Source text: The cervix of each dog was medisected to expose the pharynx and the upper part of the trachea.
The blood was introduced from the femoral artery by a peristaltic pump, and a part of the blood stream was by-passed to the downstream of the femoral artery through a Starling's air resistance tube provided parallel to the vascular bed of the trachea, thereby performing the perfusion under a constant pressure. The pressure of the perfusion was kept a little higher than the mean aortic blood pressure.
On the other hand, water was placed into the cuff of a tracheal tube equipped with a cuff, and the tube was inserted into the trachea. Then, the inside pressure of the cuff was measured by a pressure transducer to determine the inside pressure of the trachea as follows. Initially, water was placed in the cuff in such a manner that the static inside pressure of the trachea was about 40 cm H20. During the experiment, the tonus (the inside pressure of the trachea) of the tracheal smooth muscles in stationary phases was maintained by continuous intraarterial injections of 3 pg each of neostigmine into the vascular bed of the trachea at 30-minute intervals.
As an index of the selectivity of the dilating activity for trachea, the ratio of the increase of the blood flow in the trachea to the decrease of the inside pressure of the trachea was determined.
In the next experiment the test system is bronchi in situ. Nature of the experiment: animal or person. The conditions noted are these: Canis lupus familiaris, iv, read-out: Percent inhibition. As to the method:
The experiment was carried out in accordance with the Konzett-R6essler's method [Konzett, H. and Roessler, R: Arch. Exp. Pathol.
Six mongrel adult dogs were anesthetized with pentobarbital sodium (30 mg/kg). A tracheal cannula was inserted, and under artificial respiration, holes were incised in the right and left pleurae to equalize the pressure of the pleural cavity to the atmospheric pressure. The amount of air which overflowed by inspiration against a pressure of 10±1 cm H20 applied from the branch of the cannula was measured by a pneumotachograph.

On to `CC(C)NCC(O)c1ccc(O)c(O)c1` (single isomer, unassigned; (-)) [isoproterenol, (-) isoproterenol hydrochloride], for which the “effect on blood flow in the trachea and inside pressure of the trachea” value in experiment [1] was “increased the blood flow in the trachea and reduced the inside pressure of the trachea in a dose dependent manner”. Consider `Cn1c(=O)c2[nH]cnc2n(C)c1=O` [Theophylline, theophylline], for which the “effect on blood flow in the trachea and inside pressure of the trachea” value in experiment [1] is “increased the blood flow in the trachea and reduced the inside pressure of the trachea in a dose dependent manner”. For the same compound, the inhibition – broadly, the drop in the measured response relative to a control, in per cent – at 3 mg/kg with bronchi in situ was determined as 56%.
